From patent US8575145B2, “Triazolopyridine compounds as PIM kinase inhibitors” (Array BioPharma Inc., priority 2008, dated 2013)
Structures can show the parent of a compound that is named as a salt. Where two headings read alike, the source gives them in different places.

Tests used:
PIM-1 = PIM-1 (Homo sapiens (Human), UniProt P11309); test: PIM-1 Enzyme Assay; assay type: biochemical
Procedure, shortened: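 Radiometric kinase assay in 20 mM K+MOPS pH 7.4, 10 mM MgCl2, 0.005% Tween-20, 1 mM DTT, 2% DMSO final; 60 min at 22° C, stopped with H3PO4, product captured on P81 filter and counted by scintillation. IC50 from 4-parameter logistic fit of percent of control.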

[1] = biological target: GST-tagged recombinant full-length human PIM-2 (Homo sapiens (Human), UniProt Q9P1W9); test: PIM-2 Enzyme Assay; conditions: read-out: PIM-2 IC50
recombinant rat PIM-3 = recombinant rat PIM-3 (Rattus norvegicus (Rat), UniProt O70444); test: PIM-3 Enzyme Assay; conditions: read-out: PIM-3 IC50, 30 μM ATP, 0.5 nM PIM-3
[2] = 35 μM ATP, 0.25 nM PIM-1, dihydrochloride
[3] = 4 μM ATP, […] PIM-2, dihydrochloride

GST-tagged recombinant full-length human PIM-2, sequence (Q9P1W9 whole entry): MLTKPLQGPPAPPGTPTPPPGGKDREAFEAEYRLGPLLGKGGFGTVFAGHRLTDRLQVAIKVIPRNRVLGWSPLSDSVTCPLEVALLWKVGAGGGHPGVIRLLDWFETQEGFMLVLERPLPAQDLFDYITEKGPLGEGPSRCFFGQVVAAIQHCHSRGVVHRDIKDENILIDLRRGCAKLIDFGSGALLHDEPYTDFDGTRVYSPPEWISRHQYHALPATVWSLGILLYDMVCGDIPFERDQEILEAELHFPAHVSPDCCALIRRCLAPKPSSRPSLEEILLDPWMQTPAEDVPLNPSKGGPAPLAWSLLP
PIM-1, sequence (P11309 whole entry, species assumed): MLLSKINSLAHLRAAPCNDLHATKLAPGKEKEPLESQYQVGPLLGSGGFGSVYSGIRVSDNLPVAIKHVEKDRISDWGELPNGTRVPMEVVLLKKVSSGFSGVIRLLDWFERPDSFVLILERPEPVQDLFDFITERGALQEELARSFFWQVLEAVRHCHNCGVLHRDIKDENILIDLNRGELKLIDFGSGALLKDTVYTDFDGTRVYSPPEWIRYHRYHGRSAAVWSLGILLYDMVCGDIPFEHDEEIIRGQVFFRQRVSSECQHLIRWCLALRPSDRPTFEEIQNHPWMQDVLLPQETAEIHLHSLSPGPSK

IC50 (PIM-1; 35 μM ATP, 0.25 nM PIM-1) [µM]	IC50 ([1]; 4 μM ATP, […] PIM-2) [µM]	IC50 (recombinant rat PIM-3) [µM]	IC50 (PIM-1; [2]) [µM]	IC50 [1, 3] [µM]	IC50 (recombinant rat PIM-3; dihydrochloride) [µM]	SMILES	IC50 [1] [µM]	IC50 (PIM-1) [µM]
0.003	0.807	0.025	–	–	–	O[C@H]1CC[C@H](Nc2cccc3ccc(-c4nnc5ccccn45)nc23)CC1 [Example 3, (trans)-4-(2-([1,2,4]Triazolo[4,3-a]pyridin-3-yl)quinolin-8-ylamino)cyclohexanol]	–	–
0.034	1.72	0.262	–	–	–	OCC(O)COc1cccc2ccc(-c3nnc4ccccn34)nc12 (stereo not drawn) [Example 62, 3-(2-([1,2,4]triazolo[4,3-a]pyridin-3-yl)quinolin-8-yloxy)propane-1,2-diol]	–	–
0.178	10	0.465	–	–	–	CN(C)C(=O)[C@@H]1C[C@@H](Oc2cccc3ccc(-c4nnc5ccccn45)nc23)CCN1 [Example 54, (2S,4S)-4-(2-([1,2,4]triazolo[4,3-a]pyridin-3-yl)quinolin-8-yloxy)-N,N-dimethylpiperidine-2-carboxamide dihydrochloride]	–	–
0.012	1.28	0.046	–	–	–	NC(=O)N1CCC(Oc2cccc3ccc(-c4nnc5ccccn45)nc23)CC1 [Example 40, 4-(2-([1,2,4]triazolo[4,3-a]pyridin-3-yl)quinolin-8-yloxy)piperidine-1-carboxamide]	–	–
0.03	4.91	0.077	–	–	–	c1cc(O[C@H]2CCNC2)c2nc(-c3nnc4ccccn34)ccc2c1 [Example 12, (S)-2-([1,2,4]Triazolo[4,3-a]pyridin-3-yl)-8-(pyrrolidin-3-yloxy)quinoline]	–	–
0.00095	0.069	0.003	–	–	–	CC1(COc2cccc3ccc(-c4nnc5ccccn45)nc23)CCNCC1 [Example 67, 2-([1,2,4]triazolo[4,3-a]pyridin-3-yl)-8-((4-methylpiperidin-4-yl)methoxy)quinoline dihydrochloride]	–	–
0.016	5.57	0.093	–	–	–	CC(C)CCN(CCCN)c1cccc2ccc(-c3nnc4ccccn34)nc12 [Example 8, N1-(2-([1,2,4]Triazolo[4,3-a]pyridin-3-yl)quinolin-8-yl)-N1-isopentylpropane-1,3-diamine]	–	–
0.032	10	0.155	–	–	–	CC(C)(C)OC(=O)NCCCNc1cccc2ccc(-c3nnc4ccccn34)nc12 [Example 6, tert-Butyl 3-(2-([1,2,4]triazolo[4,3-a]pyridin-3-yl)quinolin-8-ylamino)propylcarbamate]	–	–
0.004	0.413	0.019	–	–	–	CCC(Oc1cccc2ccc(-c3nnc4ccccn34)nc12)[C@H](CC)CN (stereo partly drawn) [Example 31, (2R)-3-(2-([1,2,4]triazolo[4,3-a]pyridin-3-yl)quinolin-8-yloxy)-2-ethylpentan-1-amine]	–	–
0.005	0.501	0.025	–	–	–	OCC1(COc2cccc3ccc(-c4nnc5ccccn45)nc23)CC1 [Example 22, (1-((2-([1,2,4]triazolo[4,3-a]pyridin-3-yl)quinolin-8-yloxy)methyl)cyclopropyl)methanol]	–	–
0.003	0.318	0.013	–	–	–	CCC(Oc1cccc2ccc(-c3nnc4ccccn34)nc12)[C@@H](CC)CN (stereo partly drawn) [Example 30, (2S)-3-(2([1,2,4]triazolo[4,3-a]pyridin-3-yl)quinolin-8-yloxy)-2-ethylpentan-1-amine]	–	–
0.004	0.399	0.017	–	–	–	CC[C@@H](CN)C(C)Oc1cccc2ccc(-c3nnc4ccccn34)nc12 (stereo partly drawn) [Example 32, (2S)-3-(2-([1,2,4]triazolo[4,3-a]pyridin-3-yl)quinolin-8-yloxy)-2-ethylbutan-1-amine]	–	–
0.132	10	0.728	–	–	–	c1cc(OC[C@@H]2CCCN2)c2nc(-c3nnc4ccccn34)ccc2c1 [Example 61, (S)-2-([1,2,4]triazolo[4,3-a]pyridin-3-yl)-8-(pyrrolidin-2-ylmethoxy)quinoline]	–	–
0.016	4.22	0.102	–	–	–	c1cc(OCCC2CCCCN2)c2nc(-c3nnc4ccccn34)ccc2c1 (stereo not drawn) [Example 15, 2-([1,2,4]Triazolo[4,3-a]pyridin-3-yl)-8-(2-(piperidin-2-yl)ethoxy)quinoline]	–	–
0.002	0.562	0.011	–	–	–	c1cc(OCC2CCNCC2)c2nc(-c3nnc4ccccn34)ccc2c1 [Example 14, 2-([1,2,4]Triazolo[4,3-a]pyridin-3-yl)-8-(piperidin-4-ylmethoxy)quinoline]	–	–

Continued, molecule first:

SMILES	IC50 (PIM-1; 35 μM ATP, 0.25 nM PIM-1) [µM]	IC50 ([1]; 4 μM ATP, […] PIM-2) [µM]	IC50 (recombinant rat PIM-3) [µM]	IC50 (PIM-1; [2]) [µM]	IC50 [1, 3] [µM]	IC50 (recombinant rat PIM-3; dihydrochloride) [µM]	IC50 [1] [µM]	IC50 (PIM-1) [µM]
Fc1ccc2nnc(-c3ccc4cccc(O[C@H]5CCNC[C@H]5F)c4n3)n2c1 (relative stereo) [Example 59, 2-(6-fluoro-[1,2,4]triazolo[4,3-a]pyridin-3-yl)-8-((cis)-3-fluoropiperidin-4-yloxy)quinoline]	0.055	2.87	0.098	–	–	–	–	–
c1cc(OC2CC3CCC(C2)N3)c2nc(-c3nnc4ccccn34)ccc2c1 (stereo not drawn) [Example 29, 8-(8-azabicyclo[3.2.1]octan-3-yloxy)-2-([1,2,4]triazolo[4,3-a]pyridin-3-yl)quinoline]	0.005	0.585	0.03	–	–	–	–	–
CC1(COc2cccc3ccc(-c4nnc5ccccn45)nc23)CCN(CCO)CC1 [Example 86, dihydrochloride]	0.003	–	0.01	–	–	–	0.142	–
CC(C)COc1cccc2ccc(-c3nnc4cc(CN)ccn34)nc12 [Example 20, (3-(8-isobutoxyquinolin-2-yl)-[1,2,4]triazolo[4,3-a]pyridin-7-yl)methanamine]	0.002	0.051	0.005	–	–	–	–	–
c1cc(OC2CCCNCC2)c2nc(-c3nnc4ccccn34)ccc2c1 (stereo not drawn) [Example 52, 2-([1,2,4]triazolo[4,3-a]pyridin-3-yl)-8-(azepan-4-yloxy)quinoline dihydrochloride]	–	–	–	0.002	0.11	0.004	–	–
FC1CNCCCC1Oc1cccc2ccc(-c3nnc4ccccn34)nc12 (stereo not drawn) [Example 51, 2-([1,2,4]triazolo[4,3-a]pyridin-3-yl)-8-(3-fluoroazepan-4-yloxy)quinoline dihydrochloride]	0.003	–	0.01	–	–	–	0.406	–
Fc1cc(OC2CCNCCC2F)c2nc(-c3nnc4ccccn34)ccc2c1 (single isomer, unassigned) [Example 90, cis-2-([1,2,4]triazolo[4,3-a]pyridin-3-yl)-6-fluoro-8-5-fluoroazepan-4-yloxy)quinoline]	0.0004	0.131	0.002	–	–	–	–	–
Fc1cc(OC2CCNCCC2F)c2nc(-c3nnc4ccccn34)ccc2c1 (single isomer, unassigned) [Example 121, 2-([1,2,4]triazolo[4,3-a]pyridin-3-yl)-6-fluoro-8-(trans-5-fluoroazepan-4-yloxy)quinoline]	0.0305	0.52	0.0161	–	–	–	–	–
OC[C@@H]1C[C@@H](Oc2cccc3ccc(-c4nnc5ccccn45)nc23)CCN1 [Example 56, ((2S,4S)-4-(2-([1,2,4]triazolo[4,3-a]pyridin-3-yl)quinolin-8-yloxy)piperidin-2-yl)methanol dihydrochloride]	–	0.427	0.024	–	–	–	–	0.009
Cc1ccn2c(-c3ccc4cccc(OC5CCNCCC5F)c4n3)nnc2c1 (single isomer, unassigned) [Example 122, 8-((cis-4,5)-5-fluoroazepan-4-yloxy)-2-(7-methyl-[1,2,4]triazolo[4,3-a]pyridin-3-yl)quinoline]	0.0175	1	0.0235	–	–	–	–	–
FC1(COc2cccc3ccc(-c4nnc5ccccn45)nc23)CCNCC1 [Example 66, 2-([1,2,4]triazolo[4,3-a]pyridin-3-yl)-8-((4-fluoropiperidin-4-yl)methoxy)quinoline dihydrochloride]	–	–	0.003	–	–	–	0.052	0.0008
COC1(COc2cccc3ccc(-c4nnc5ccccn45)nc23)CCNCC1 [Example 73, 2-([1,2,4]triazolo[4,3-a]pyridin-3-yl)-8-((4-methoxypiperidin-4-yl)methoxy)quinoline bis(trifluoroacetate)]	–	0.079	0.005	–	–	–	–	0.00096
F[C@H]1CNCC[C@@H]1Oc1cccc2ccc(-c3nnc4ccccn34)nc12 (relative stereo) [Example 25, 2-([1,2,4]triazolo[4,3-a]pyridin-3-yl)-8-((trans)-3-fluoropiperidin-4-yloxy)quinoline]	0.004	0.686	0.02	–	–	–	–	–
Fc1cc(O[C@H]2CCNC[C@H]2F)c2nc(-c3nnc4ccccn34)ccc2c1 (relative stereo) [Example 88, 2-([1,2,4]triazolo[4,3-a]pyridin-3-yl)-6-fluoro-8-((cis)-3-fluoropiperidin-4-yloxy)quinoline]	0.008	0.502	0.024	–	–	–	–	–
Cc1ccc2nnc(-c3ccc4cccc(OC5CCNCCC5F)c4n3)n2c1 (single isomer, unassigned) [Example 99, 8-((trans)-5-fluoroazepan-4-yloxy)-2-(6-methyl-[1,2,4]triazolo[4,3-a]pyridin-3-yl)quinoline dihydrochloride]	–	–	–	0.0174	1	0.0397	–	–
